What is called pIC50 is −log10 of the IC50, conventionally taken in molar units.

pIC50: −log10 of the molar value. Counter-ions that a name gives are not always drawn.

For experiment [1], the system named is serotonin 5HT2A receptors. The settings on record: 3T3 fibroblasts expressing 5HT2A; cited from earlier work.
A further experiment deals with T1, human 5HT2C receptor (Homo sapiens, UniProt P28335).
T1 construct: expressed in transfected cells; host or cells: HEK293
T1 sequence (P28335 33-458): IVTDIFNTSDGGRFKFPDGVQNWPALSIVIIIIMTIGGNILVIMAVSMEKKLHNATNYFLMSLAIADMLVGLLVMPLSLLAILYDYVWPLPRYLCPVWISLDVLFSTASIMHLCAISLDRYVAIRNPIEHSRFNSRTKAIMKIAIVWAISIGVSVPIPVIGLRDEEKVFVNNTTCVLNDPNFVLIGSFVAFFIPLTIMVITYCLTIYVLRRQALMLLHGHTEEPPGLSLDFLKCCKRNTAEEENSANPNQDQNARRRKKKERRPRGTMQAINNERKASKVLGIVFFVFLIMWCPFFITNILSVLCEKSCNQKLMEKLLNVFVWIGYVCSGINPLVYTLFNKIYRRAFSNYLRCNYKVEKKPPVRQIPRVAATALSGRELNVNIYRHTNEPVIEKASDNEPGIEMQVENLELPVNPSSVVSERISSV
The experiment is described as follows: Intracellular IP3 Accumulation Assay. Type of experiment: cell-based. Particulars: HEK293 cells transfected with human 5HT2C receptor; averages of at least two trials; read-out: 5-HT2C (IC50) IP Accumulation Assay. On the procedure: Intracellular IP3 Accumulation Assay
HEK293 cells were transfected in 15 cm sterile dishes with or without (control) 16 ug of human 5HT2C receptor cDNA [Saltzman, A. G., et al. Biochem. Biophys. Res. Commun. 181, 1469-1478 (1991)] using 25 ul of lipofectamine. Cells were then incubated for 3-4 hours at 37° C./5% CO2 and then transfection media was removed and replaced with 100 μL of DMEM. Cells were then plated onto […] sterile dishes. The next day cells were plated into 96 well PDL microtiter plates at a density of 55K/0.2 ml. Six hours latter, media was exchanged with [^3H]inositol (0.25 μCi/well) in inositol free DMEM and plates were incubated at 37° C./5% CO2 overnight. The next day, wells were aspirated and 200 μl of DMEM containing test compound, 10 μM pargyline, and 10 mM LiCl was added to appropriate wells. Plates were then incubated at 37° C./5% CO2 for three hours followed aspiration and by addition of fresh ice cold stop solution (1M KOH, 19 mM Na-borate, 3.8 mM EDTA) to each well. Plates were kept on ice for 5-10 min and the wells were neutralized by addition of 200 μL of fresh ice cold neutralization solution (7.5% HCl). Plates were then frozen until further processing is desired. The lysate was then transferred into 1.5 mL Eppendorf tubes and 1 mL of chloroform/methanol (1:2) was added/tube. […]

In experiment [2] the test system is amyloid precursor protein (APPs). Particulars: guinea pigs, in vivo, repeat administration; cited from earlier work.

`NCCc1c[nH]c2ccc(O)cc12` [Example 5-HT, 5-hydroxytryptamine]: in experiment [1], the “Maximal stimulation of APPs secretion” value is “about 4 fold”.
Take `C[C@@H]1CNCCc2cc(Cc3ccccc3)c(Cl)cc21` [Example 13, (S)-7-Benzyl-8-chloro-1-methyl-2,3,4,5-tetrahydro-1H-benzo[d]azepine hydrochloride]: the negative-log IC50 (pIC50) at human 5HT2C receptor was 7.52.
`C[C@H](N)Cc1cccc(C(F)(F)F)c1` [dexnorfenfluramine]: in experiment [2], the “amyloid precursor protein (APPs) secretion” value is recorded as “stimulated” and the “levels of Aβ production” value is “reducing”.
For `COc1cc2c(cc1Cc1ccccc1)C(C)CNCC2` (racemic) [Example 14, (R,S)-8-Benzyl-7-methoxy-1-methyl-2,3,4,5-tetrahydro-1H-benzo[d]azepine hydrochloride], the pIC50 on human 5HT2C receptor is 8.15.

Source of the values: patent US20080009478A1, “Benzazepine Derivatives and Methods of Prophylaxis or Treatment of 5Ht2c Receptor Associated Diseases” (Arena Pharmaceuticals, Inc., priority 2003, published 2008).
